Legend:
[1] = system: KB-V1 cells; assay: Resazurin cell viability (cytotoxicity) assay, 72 h incubation, KB-V1 cells (selected with vinblastine); assay type: cell-based; conditions: resazurin fluorescence, drug concentration at which vitality is 50%, read-out: IC50 values of cryptophycin compounds, KB-V1 cells
Experimental: (§1) The KB-3-1 and KB—V1 cells were cultivated as a monolayer in DMEM (Dulbecco's modified Eagle medium) with glucose (4.5 g L^−1), L-glutamine, sodium pyruvate and phenol red, supplemented with 10% (KB-3-1) and 15% (KB—V1) fetal bovine serum. 50 μg mL^−1 gentamycin is added for the KB—V1 cells. The cells were maintained at 37° C. and 5.3% CO2/humidified air. KB—V1 cells were continuously selected during cultivation with vinblastine sulfate (150 nM). On the day before the test, the cells (70% confluence) were detached with trypsin/ethylenediaminetetraacetic acid (EDTA) solution (0.05%/0.02% in DPBS) and plated in sterile 96-well plates in a density of 10,000 cells in 100 μL medium per well. The dilution series of the compounds were prepared from stock solutions in DMSO of concentrations of […]. The stock solutions were diluted with culture medium (15% FBS [KB—V1]; 10% FBS [KB-3-1]) at least 50 times. Some culture medium was added to the wells to adjust the volume of the wells to the wanted dilution factor. The dilution prepared from stock solution was added to the wells. Each concentration was tested in six replicates. Dilution series were prepared by pipetting liquid from well to well. The control contained the same concentration of DMSO as the first dilution. After incubation for 72 h at 37° C. and 5.3% CO2/humidified air, 30 μL of an aqueous resazurin solution (175 μM) was added to each well. The cells were incubated at the same conditions for 6 h. Subsequently, the fluorescence was measured. The excitation was effected at a wavelength of 530 nm, whereas the emission was recorded at a wavelength of 588 nm. The IC50 values were calculated as a sigmoidal dose response curve using GraphPad Prism 4.03. The IC50 values equal the drug concentrations, at which vitality is 50%.

[2] = system: KB-3-1 cells; assay: Resazurin cell viability (cytotoxicity) assay, 72 h incubation, KB-3-1 cells; assay type: cell-based; conditions: resazurin fluorescence, drug concentration at which vitality is 50%, read-out: IC50 values of cryptophycin compounds, KB-3-1 cells
Experimental: as §1

| Substance | IC50 [1] [nM] | IC50 [2] [nM] |
| --- | --- | --- |
| Cryptophycin [Compound H8, Cryptophycin [uD-Ser]] | 1100 | 0.12 |
| Cryptophycin-[uD-Dab(Alloc)] [Compound C5] | 400 | 0.22 |
| Cryptophycin-[uD-Dab-Me2] [Compound C7] | 210 | 0.038 |
| Cryptophycin-[uD-Dab] [Compound C6] | > 50000 | 1 |
| Cryptophycin-[uD-HSe(AII)] [Compound Y7] | 93 | 0.018 |
| Cryptophycin-[uD-HSe] [Compound Y8] | > 500 | 0.8 |
| Cryptophycin-[uD-Lys(Alloc)] [Compound G5] | > 500 | 4200 |
| Cryptophycin-[uD-Lys] [Compound G6] | > 500 | 60000 |
| Cryptophycin-[uD-Met] [Compound T7] | 49 | 0.02 |
| Cryptophycin-[uD-Ser(AII)] [Compound H7] | 29 | 0.011 |
| Cryptophycin-[uD-Thr(Allyl)] [Compound Z6] | > 1000 | 1.5 |
| Cryptophycin-[uD-Thr] [Compound Z7] | 300 | 0.026 |
| Cryptophycin-uD[Dab(Alloc,Me)] [Compound B10] | 90 | 0.021 |
| Cryptophycin-uD[Dap(AII, Me)] [Compound C10] | 0.87 | 0.021 |
| Cryptophycin-uD[Dap(Alloc,Me)] [Compound P10] | 890 | 0.045 |
| Cryptophycin-uD[Dap(Me)] [Compound P11] | 21 | 0.0087 |
